Measurements as given in US11214803B2, “Modulators of YAP1 expression” (Ionis Pharmaceuticals, Inc., priority 2019, dated 2022).
Strand notation (5' to 3'): a small letter for the sugar, then the base; units joined by * are phosphorothioate-linked, units joined directly phosphodiester-linked; [ ] holds rarer units or linkages, { } end groups; capitals alone tell only the bases. k = constrained ethyl (cEt); [5mC] = 5-methylcytosine; d = 2'-deoxy (DNA)

System: Yap1 mRNA
Assay: Dose-dependent inhibition of human Yap1 in A-431 cells (Example 8, 10,000 cells per well, RTS4814)
Type: cell-based
Settings: free uptake, approximately 48 hours, RTS4814; for Yap1 mRNA, % UTC: A-431 cells, 10,000 cells per well; for IC50: A-431 cells, linear regression on log/linear plot
Experimental: Modified oligonucleotides described in the studies above were tested at various doses in A-431 cells. Cultured A-431 cells at a density of 10,000 cells per well were treated using free uptake with modified oligonucleotides diluted to concentrations described in the tables below. After approximately 48 hours, Yap1 mRNA levels were measured as previously described using the Human Yap1 primer-probe set RTS4814. Yap1 mRNA levels were normalized to total RNA content, as measured by RIBOGREEN®. Results are presented in the tables below as percent control of the amount of Yap1 mRNA relative to untreated control cells (% UTC). IC50s were calculated using a linear regression on a log/linear plot of the data in excel.

| Substance | Yap1 mRNA, % UTC (31.3 nM) [% UTC] | Yap1 mRNA, % UTC (125.0 nM) [% UTC] | Yap1 mRNA, % UTC (500.0 nM) [% UTC] | Yap1 mRNA, % UTC (2000.00 nM) [% UTC] | IC50 [nM] |
| --- | --- | --- | --- | --- | --- |
| 1074245 (antisense kA*kG*kA*dA*dG*dT*dA*dT*d[5mC]*dT*d[5mC]*dT*dG*kA*k[5mC]*k[5mC]) [compound 1074245] | 47 | 21 | 8 | 5 | < 20 |
| 1074250 (antisense k[5mC]*kT*kG*dA*dT*d[5mC]*dG*dA*dT*dG*dT*dG*dA*kT*kT*kT) [compound 1074250] | 67 | 35 | 15 | 9 | 100 |
| 1074251 (antisense kT*k[5mC]*kT*dG*dA*dT*d[5mC]*dG*dA*dT*dG*dT*dG*kA*kT*kT) [compound 1074251] | 73 | 33 | 16 | 10 | 100 |
| 1074274 (antisense kG*kT*kT*d[5mC]*dT*dT*dA*dT*dG*dG*dT*dT*dT*kA*kT*kA) [compound 1074274] | 42 | 14 | 7 | 5 | < 20 |
| 1074313 (antisense kT*kG*kA*dT*dA*dT*dT*d[5mC]*d[5mC]*dG*d[5mC]*dA*dT*kT*kG*k[5mC]) [compound 1074313] | 56 | 21 | 9 | 5 | < 20 |
| 1074315 (antisense kG*kA*kT*dT*dG*dA*dT*dA*dT*dT*d[5mC]*d[5mC]*dG*k[5mC]*kA*kT) [compound 1074315] | 57 | 26 | 9 | 5 | 30 |
| 1074368 (kG*kA*kT*dA*dG*dT*dA*dT*d[5mC]*dA*d[5mC]*d[5mC]*dT*kG*kT*kA; antisense) [compound 1074368] | 67 | 34 | 15 | 10 | 100 |
| 1074407 (kT*kA*kA*dA*dG*dT*dA*dT*d[5mC]*dT*dT*dG*d[5mC]*kT*kG*kG; antisense) [compound 1074407] | 55 | 27 | 13 | 8 | < 20 |
| 1074409 (kG*kG*kA*dT*dT*dA*dA*dA*dG*dT*dA*dT*d[5mC]*kT*kT*kG; antisense) [compound 1074409] | 60 | 30 | 13 | 7 | 40 |
| 1074411 (kT*kG*kT*dG*dA*dA*dA*dG*dA*dG*dG*dT*d[5mC]*kA*kG*k[5mC]; antisense) [compound 1074411] | 47 | 20 | 8 | 6 | < 20 |
| 1074443 (kT*k[5mC]*kA*dG*dA*d[5mC]*d[5mC]*dA*dG*dT*dA*dA*dA*kT*k[5mC]*kA; antisense) [compound 1074443] | 69 | 35 | 14 | 8 | 100 |
| 1074535 (kG*kT*kA*dA*dT*dA*dG*d[5mC]*dT*d[5mC]*dT*dT*dT*k[5mC]*kT*kA; antisense) [compound 1074535] | 57 | 21 | 7 | 5 | < 20 |
| 1074536 (kA*kG*kT*dA*dA*dT*dA*dG*d[5mC]*dT*d[5mC]*dT*dT*kT*k[5mC]*kT; antisense) [compound 1074536] | 64 | 24 | 9 | 6 | 40 |
| 1074537 (k[5mC]*kA*kG*dT*dA*dA*dT*dA*dG*d[5mC]*dT*d[5mC]*dT*kT*kT*k[5mC]; antisense) [compound 1074537] | 47 | 21 | 6 | 4 | < 20 |
| 1074560 (DNA k[5mC]*k[5mC]*kA*dA*dT*d[5mC]*dG*dA*dG*dA*d[5mC]*dT*dT*kA*kA*kA) [compound 1074560] | 50 | 16 | 6 | 4 | < 20 |
| 1074563 (DNA kT*kG*kA*dA*dT*dT*d[5mC]*d[5mC]*dA*dA*dT*d[5mC]*dG*kA*kG*kA; antisense) [compound 1074563] | 80 | 31 | 7 | 5 | 100 |
| 1074564 (DNA k[5mC]*kT*kG*dA*dA*dT*dT*d[5mC]*d[5mC]*dA*dA*dT*d[5mC]*kG*kA*kG) [compound 1074564] | 40 | 14 | 7 | 4 | < 20 |
| 1074565 (DNA kA*k[5mC]*kT*dG*dA*dA*dT*dT*d[5mC]*d[5mC]*dA*dA*dT*k[5mC]*kG*kA; antisense) [compound 1074565] | 47 | 20 | 9 | 6 | < 20 |
| 1074566 (DNA CACTGAATTCCAATCG; 3-10-3 cEt gapmer, chemistry not fully specified) [compound 1074566] | 41 | 12 | 5 | 3 | < 20 |
| 1074593 (DNA kA*kG*kG*dA*dG*d[5mC]*dA*dA*dG*dT*d[5mC]*dT*dT*kG*kT*kA) [compound 1074593] | 50 | 20 | 9 | 8 | < 20 |
| 1074594 (DNA kT*kA*kG*dG*dA*dG*d[5mC]*dA*dA*dG*dT*d[5mC]*dT*kT*kG*kT) [compound 1074594] | 53 | 23 | 10 | 5 | < 20 |
| 1074595 (DNA kT*kA*kG*dA*dA*dG*dT*dA*dG*dG*dA*dG*d[5mC]*kA*kA*kG; antisense) [compound 1074595] | 67 | 21 | 8 | 4 | 40 |
| 1074597 (DNA kA*kG*kT*dA*dT*dT*d[5mC]*dT*dA*dT*d[5mC]*d[5mC]*dA*kG*kG*kG; antisense) [compound 1074597] | 35 | 15 | 8 | 7 | < 20 |
| 1074626 (DNA k[5mC]*kT*kG*dT*dT*dA*dT*dG*dA*dA*d[5mC]*d[5mC]*d[5mC]*kT*kT*kG) [compound 1074626] | 54 | 18 | 8 | 5 | < 20 |
